Laboratory results: patent EP3046573B1, “AMYLIN ANALOGUES” (Zealand Pharma A/S, priority 2013, dated 2015)
pEC50: −log10 of the molar value. Where two headings read alike, the source gives them in different places. Numbered stars: 1 amine (or outer) side, 2 acyl side, 3 side chain; on linkers, the order of the positions; unused ones are H or OH. Bridge positions count the residues as written; N and C are the ends. Square brackets hold non-standard residues; d marks the D form. Peptide text beside a SMILES is read from it. * marks the point of attachment. C20 diacid = O=C(O)CCCCCCCCCCCCCCCCCCC(=O)*; γGlu = O=C(O)[C@H](CCC(=O)[*:2])N[*:1]; NMeI = CC[C@H](C)[C@H](NC)C(=O)O; Aze = O=C(O)[C@@H]1CCN1; Sar = CNCC(=O)O

Tests used:
[1] = Solubility assessment (turbidity absorbance at 325 nm); format: physicochemical; details: stock 2 mg/ml diluted 1:1, ambient temperature (typically 25°C), n=1; for Solubility, Acetate buffer pH 4: 100 mM acetate buffer pH 4.0; for Solubility, Acetate buffer pH 5: 100 mM acetate buffer pH 5.0; for Solubility, Histidine buffer pH 6: 100 mM histidine buffer pH 6.0; for Solubility, Histidine buffer pH 7: 100 mM histidine buffer pH 7.0; for Solubility, Phosphate buffer pH 6: 100 mM phosphate buffer pH 6.0; for Solubility, Phosphate buffer pH 7: 100 mM phosphate buffer pH 7.0; for Solubility, Phosphate buffer pH 7.5: 100 mM phosphate buffer pH7.5
Outline: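 Turbidity read as absorbance at 325 nm (also 280 nm), single samples at ambient temperature (typically 25°C); ≤ 0.02 units counts as ≥ 1 mg/ml soluble. Samples made by 1:1 dilution of a 2 mg/ml acidic stock into 100 mM acetate, histidine or phosphate buffers, pH 4.0–7.5.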

[2] = target: T1, human calcitonin receptor (hCTR2) (Homo sapiens, UniProt P30988); experiment: hCTR2 assay: induction of cAMP (AlphaScreen cAMP Assay kit) in COS7 cells expressing hCTR2; format: cell-based
T1 construct: expressed in transfected cells
T1 sequence (P30988 25-474): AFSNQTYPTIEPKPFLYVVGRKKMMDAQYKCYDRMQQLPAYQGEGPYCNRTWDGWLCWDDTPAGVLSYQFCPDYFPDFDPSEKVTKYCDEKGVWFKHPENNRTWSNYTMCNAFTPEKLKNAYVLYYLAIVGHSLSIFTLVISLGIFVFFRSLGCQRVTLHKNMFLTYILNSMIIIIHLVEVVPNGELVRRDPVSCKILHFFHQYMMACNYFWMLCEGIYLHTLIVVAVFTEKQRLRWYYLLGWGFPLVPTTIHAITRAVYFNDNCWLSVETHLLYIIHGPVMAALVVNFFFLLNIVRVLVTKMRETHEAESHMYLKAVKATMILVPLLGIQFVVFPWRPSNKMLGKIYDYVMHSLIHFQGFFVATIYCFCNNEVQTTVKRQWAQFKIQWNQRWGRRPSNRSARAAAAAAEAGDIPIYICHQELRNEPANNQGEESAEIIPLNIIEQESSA
Outline: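 cAMP induction was measured by AlphaScreen in COS7 cells stably expressing hCTR2 without RAMPs, after 15 min at 37° C with increasing peptide concentrations, 100 µM IBMX and 0.1% casein (Tyrode, pH 7.4). A 4-parameter logistic fit gave EC50 and % efficacy versus pramlintide.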

[3] = target: T2, human amylin receptor 3 (hAMYR3) consisting of hCTR2 co-expressed with human Receptor Activity Modifying Protein 3 (hRAMP3) (Homo sapiens, UniProt O60896+P30988); experiment: hAMYR3 assay: induction of cAMP (AlphaScreen cAMP Assay kit) in COS7 cells expressing hAMYR3; format: cell-based
T2 construct: expressed in transfected cells
T2 sequence (P30988 25-474): T1 sequence (P30988 25-474)
T2 sequence (O60896 24-148 partner): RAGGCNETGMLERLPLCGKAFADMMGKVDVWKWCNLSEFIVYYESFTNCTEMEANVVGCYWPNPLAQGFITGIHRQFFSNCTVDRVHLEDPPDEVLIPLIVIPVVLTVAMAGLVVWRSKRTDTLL
Outline: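 cAMP accumulation read by AlphaScreen in lysates of RAMP-naive COS7 cells stably transfected with hCTR2 plus hRAMP3. Cells exposed to peptide dilutions for 15 min, 37° C, with 100 µM IBMX; 4PL fitting gave EC50 and efficacy relative to pramlintide.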

In the case of `CC[C@H](C)[C@@H](C(=O)N[C@@H](CC(C)C)C(=O)N[C@@H](CO)C(=O)N[C@@H](CO)C(=O)N[C@H](C(=O)N[C@@H](CC(N)=O)C(=O)N[C@H](C(=O)NCC(=O)N[C@@H](CO)C(=O)N[C@@H](CC(N)=O)C(=O)N[C@H](C(=O)NCC(N)=O)[C@@H](C)O)C(C)C)[C@@H](C)O)N(C)C(=O)[C@H](C)NC(=O)CN(C)C(=O)[C@H](Cc1ccccc1)NC(=O)[C@H](CC(N)=O)NC(=O)[C@H](CC(N)=O)NC(=O)[C@H](CO)NC(=O)[C@H](CO)NC(=O)[C@H](CCCNC(=N)N)NC(=O)[C@H](Cc1c[nH]cn1)NC(=O)[C@H](CC(C)C)NC(=O)[C@H](Cc1ccccc1)NC(=O)[C@H](CCC(=O)O)NC(=O)[C@H](C)NC(=O)[C@H](CC(C)C)NC(=O)[C@H](CCCNC(=N)N)NC(=O)[C@H](CCC(N)=O)NC(=O)[C@@H](NC(=O)[C@H](C)NC(=O)[C@@H]1CSSC[C@H](NC(=O)[C@H](CCCNC(=N)N)NC(=O)CC[C@H](NC(=O)CCCCCCCCCCCCCCCCCCC(=O)O)C(=O)O)C(=O)N[C@@H](CC(N)=O)C(=O)N[C@@H]([C@@H](C)O)C(=O)N[C@@H](C)C(=O)N[C@@H]([C@@H](C)O)C(=O)N1)[C@@H](C)O` [Compound 96, [19CD]-isoGlu-RC()NTATC()ATQRLAEFLHRSSNNF-Gly(Me)-A-Ile(Me)-LSSTNVGSNTG-NH2] ({C20 diacid-γGlu}-RCNTATCATQRLAEFLHRSSNNF[Sar]A[NMeI]LSSTNVGSNTG-NH2; disulfide 2-7), the “Solubility, Acetate buffer pH 4” value [1] was “SS (SS indicates solubility ≥ 1mg/ml)”, the “Solubility, Acetate buffer pH 5” value [1] was “SS (SS indicates solubility ≥ 1mg/ml)” and the “Solubility, Histidine buffer pH 6” value [1] was “SS (SS indicates solubility ≥ 1mg/ml)”. The “Solubility, Histidine buffer pH 7” value [1] was “SS (SS indicates solubility ≥ 1mg/ml)”, the “Solubility, Phosphate buffer pH 6” value [1] was “SS (SS indicates solubility ≥ 1mg/ml)” and the “Solubility, Phosphate buffer pH 7” value [1] was “SS (SS indicates solubility ≥ 1mg/ml)”. The “Solubility, Phosphate buffer pH 7.5” value [1] was “SS (SS indicates solubility ≥ 1mg/ml)”, the pEC50 [2] was 9.47 and the pEC50 [3] was 8.25.
For `CC[C@H](C)[C@@H](C(=O)N[C@@H](CC(C)C)C(=O)N[C@@H](CO)C(=O)N[C@@H](CO)C(=O)N[C@H](C(=O)N[C@@H](CC(N)=O)C(=O)N[C@H](C(=O)NCC(=O)N[C@@H](CO)C(=O)N[C@@H](CC(N)=O)C(=O)N[C@H](C(=O)N1CC[C@H]1C(N)=O)[C@@H](C)O)C(C)C)[C@@H](C)O)N(C)C(=O)CN(C)C(=O)[C@H](Cc1ccccc1)NC(=O)[C@H](CC(N)=O)NC(=O)[C@H](CC(N)=O)NC(=O)[C@H](CO)NC(=O)[C@H](CO)NC(=O)[C@H](CCCNC(=N)N)NC(=O)[C@H](Cc1c[nH]cn1)NC(=O)[C@H](CC(C)C)NC(=O)[C@H](Cc1ccccc1)NC(=O)[C@H](CCC(=O)O)NC(=O)[C@H](C)NC(=O)[C@H](CC(C)C)NC(=O)[C@H](CCCNC(=N)N)NC(=O)[C@H](CCC(N)=O)NC(=O)[C@@H](NC(=O)[C@H](C)NC(=O)[C@@H]1CSSC[C@H](NC(=O)[C@H](CCCNC(=N)N)NC(=O)CC[C@H](NC(=O)CCCCCCCCCCCCCCCCCCC(=O)O)C(=O)O)C(=O)N[C@@H](CC(N)=O)C(=O)N[C@@H]([C@@H](C)O)C(=O)N[C@@H](C)C(=O)N[C@@H]([C@@H](C)O)C(=O)N1)[C@@H](C)O` [Compound 108, [19CD]-isoGlu-RC()NTATC()ATQRLAEFLHRSSNNF-Gly(Me)-Ile(Me)-LSSTNVGSNT-Aze-NH2] ({C20 diacid-γGlu}-RCNTATCATQRLAEFLHRSSNNF[Sar][NMeI]LSSTNVGSNT[Aze]-NH2; disulfide 2-7), the “Solubility, Acetate buffer pH 4” value [1] was “SS (SS indicates solubility ≥ 1mg/ml)”, the “Solubility, Acetate buffer pH 5” value [1] was “SS (SS indicates solubility ≥ 1mg/ml)” and the “Solubility, Histidine buffer pH 6” value [1] was “SS (SS indicates solubility ≥ 1mg/ml)”. The “Solubility, Histidine buffer pH 7” value [1] was “SS (SS indicates solubility ≥ 1mg/ml)”, the “Solubility, Phosphate buffer pH 6” value [1] was “SS (SS indicates solubility ≥ 1mg/ml)” and the “Solubility, Phosphate buffer pH 7” value [1] was “SS (SS indicates solubility ≥ 1mg/ml)”. For the same compound, the “Solubility, Phosphate buffer pH 7.5” value [1] was “SS (SS indicates solubility ≥ 1mg/ml)”, the pEC50 ([2]; cAMP induction in COS7 cells expressing hCTR2, average of a minimum of 3 determinations, read-out: hCTR2 EC50) was 9.49 and the pEC50 ([3]; cAMP induction in COS7 cells expressing hAMYR3, average of a minimum of 3 determinations, read-out: hAMY R3 EC50) was 9.17.
